Results: patent publication US20260137678A1, “METHODS FOR TREATING OR PREVENTING NEUROENDOCRINE TUMOR FORMATION USING XPO1 INHIBITORS” (priority 2022, published 2026)

Legend:
Lx1042 (T-SCLC) PDX = test: In vivo treatment of PDX, tumor growth and tumor western blots; design: species or system mice; settings: tumors from in vivo treatment; selinexor added to cisplatin
[1] = tested on: TP53/RB1-inactivated 22PC and H1563 cell lines; test: Cell cycle assay by flow cytometry; type: cell-based; settings: 4 days, even at substantially cytotoxic concentrations of selinexor
Description: FIGS. 8D-8E: Proliferation assays were performed in TP53/RB1-inactivated 22PC and H 1563 cell lines and the cell cycle profile was assessed in those being treated with selinexor. […] Cell cycle was studied by flow cytometry. Cells were seeded in 6-well plates and treated for 4 days with selinexor at the indicated doses. At day 4, cells were washed with PBS (Lonza) and fixed in 70% ethanol for a maximum period of 1 week at 4° C. Next, cells were washed twice with PBS (Lonza) and incubated with FxCycle PI/RNAse Staining solution (Invitrogen) for 1 h at RT. Cell cycle was determined using a BD LSRFortessa cell analyzer (BD Bioscience) and cell cycle phases were determined using FlowJo® software v10.

SOX2 = SOX2 mRNA and protein expression in selinexor-treated isogenic cell lines; type: cell-based; settings: H1563, 22PC and LnCap cell lines, selinexor 5 nM for 4 days
Description: FIGS. 6A-6J: Exportin 1 inhibition downregulates SOX2 expression, hindering the acquisition of NE features. Pathway enrichment analysis on DEGs from enzalutamide versus control (FIG. 6A) and combo versus enzalutamide (FIG. 6B) conditions in the transcriptomic data from TP53/RB1 DKO 22PC xenografts treated in vivo and collected at control arm experimental endpoint (day 31). Categorized pathways of interest, previously involved in NE transformation^5,6, are shown. FIG. 6C: SOX2 mRNA expression in tumors divided by treatment condition. mRNA expression values are shown as TPM (n=4, 3, 3 and 3 tumors for the control, enzalutamide-, selinexor- and combo-treated tumors). […] Mice weights and tumor volumes were measured twice a week and mice were sacrificed when tumors reached humane endpoint (volume=1000 mm^3). […] For western blots and mRNA plots, representative images are shown. p-values were calculated using the Student's t-test (unpaired, heterogeneous variances, two-tailed). p-value legend: *<0.05, **<0.01, ***<0.001. […]
Protein extraction and western blot were performed as previously described^24 from frozen cell pellets or flash-frozen tumor samples using RIPA lysis buffer with 1×HALT protease inhibitor cocktail (Thermo, #78446). […] Quantifications were performed with the Image Studio software (Version 3.1, Li-Cor). […]

O=C(/C=C\n1cnc(-c2cc(C(F)(F)F)cc(C(F)(F)F)c2)n1)NNc1cnccn1 [selinexor]
activation of the AKT pathway in tumors (western blot) (Lx1042 (T-SCLC) PDX): suppressed | cell cycle profile [1]: no significant shifts in cell cycle profile | induction of SOX2 mRNA and protein by TP53/RB1 inactivation (SOX2): prevented
